Test results published in patent publication US20070292387A1, “TRANSMUCOSAL DELIVERY OF PHARMACEUTICAL ACTIVE SUBSTANCES” (GWANGJU INSTITUTE OF SCIENCE AND TECHNOLOGY, priority 2006, published 2007).
Read-outs that look alike come from different tables or passages of the source.

Legend:
Diabetes-induced rats [1] = experiment: Bioavailability calculated from degree of blood glucose control (AUC) after oral administration; assay type: in vivo, rat; details: insulin 1.77 mg/kg, protease inhibitor not added
Description: (§1) An insulin-chitosan conjugate (a conjugate using chitosan of MW 3000, 6000 or 9000 Da) was dissolved in a citrate buffer solution and then diluted with physiological saline to prepare an insulin-chitosan conjugate solution at an insulin concentration of 100 U/mL. Diabetes-induced rats were fasted for 6 hours, and blood was collected from the tail veins of animals and the blood glucose level was determined. The thus-obtained value was used as an initial value prior to administration of the drug. The experimental animals were given oral administration of the above-prepared insulin-chitosan conjugate solution at a dose of 50 IU/kg using a gastric sonde (50 IU is equivalent to 1.77 mg of insulin). As a control, animals were given oral administration of 50 IU/kg insulin and chitosan of MW 9000 Da in the same manner as above. On time points of 1, 2, 3, and 4 hours after administration of the drug, blood was collected from the tail veins of animals and the blood glucose level was determined. The blood glucose level at each time point was calculated by taking the initial value prior to administration of the drug to be 100%.
Then, the bioavailability of conjugates were calculated from the degree of blood glucose control (area under curve, AUC) obtained in FIG. 2 after oral administration of each insulin-chitosan conjugate. […] In addition, as a control, known bioavailability of insulin, a protease-chitosan conjugate and a thiolated chitosan-insulin tablet preparation containing glutathione (a reducing agent) (Krauland A H, et al., J. Control Release, 24; 95(3):547-555 (2004)) was compared.

Diabetes-induced rats [2] = experiment: In vivo oral administration of insulin-chitosan conjugate (blood glucose level); design: species or system rat; details: FIG. 2
Description: as §1

[3] = Plasma paclitaxel after single oral dose with or without P-gp inhibitor cyclosporine A; assay type: in vivo, ICR mice
Description: ICR mice (male, 25-30 g) were fasted for 12 hr before dosing. Mice were anesthetized with diethyl ether and administered with a single oral dose of paclitaxel or paclitaxel-chitosan conjugates with or without P-gp inhibitor (cyclosporine A, Sigma, 15 mg/kg) through an oral gavage that was carefully passed down the esophagus into the stomach. The drug solutions were prepared in 10% DMSO solution. The total volume of the administered drug solution was 0.2 ml. Blood (450 μl) was collected from a capillary in the retroorbital plexus and directly mixed with 50 Al of sodium citrate (3.8% solution); the sample was then immediately centrifuged at 3000 rpm at 4° C. for 20 min. The concentrations of paclitaxel in plasma were measured using HPLC after extraction.

B16F10 melanoma cells = experiment: Oral administration in B16F10 melanoma allograft (tumor size, survival); assay type: in vivo, C57BL6 male mice; details: oral 25 mg/kg, 5 days on, 2 days off, about 30 days; FIG. 7
Description: B16F10 melanoma cells were subcutaneously transplanted at a cell density of 5×10^6 cells/mice into a dorsal region of C57BL6 male mice (mean body weight: 25 g). […] Experiments were carried out for mouse groups, each consisting of 5 to 6 animals having the tumor, simultaneously with observation of changes. Animals were given oral administration of the drug or physiological saline for about 30 days, starting on day 10 after tumor transplantation. […] The control group was administered physiological saline, paclitaxel and chitosan. In order to confirm the degree of tumor growth, the size of tumor was daily measured using a calibrator. The tumor size was calculated according to the following Equation (2): Tumor volume (mm^3)=(Length×Width^2)/2 (Equation 2).
The survival rate of mice was also monitored simultaneously with measurement of the tumor size. When the tumor mass reached a size of more than 8000 mm^3, the animals were euthanized.

[4] = oral, cited from earlier work

Insulin-9K LMWC: insulin-chitosan conjugate using low molecular weight chitosan of MW 9000 Da
Bioavailability (%) (IV injection: 100%) (Diabetes-induced rats [1]): 1.0 ± 0.13%
Bioavailability (%) (SC injection: 100%) (Diabetes-induced rats [1]): 3.69 ± 0.29%

insulin
lowering of the blood glucose levels (in words) (Diabetes-induced rats [2]; insulin 50 IU/kg, chitosan of MW 9000 Da): no lowering of the blood glucose levels

Insulin-6K LMWC: insulin-6 KDa low molecular weight chitosan conjugate
Bioavailability (%) (IV injection: 100%) (Diabetes-induced rats [1]): 0.77 ± 0.16%
Bioavailability (%) (SC injection: 100%) (Diabetes-induced rats [1]): 2.66 ± 0.38%

Insulin-3K LMWC: insulin-chitosan conjugate using low molecular weight chitosan of MW 3000 Da
Bioavailability (%) (SC injection: 100%) (Diabetes-induced rats [1]): 1.89 ± 0.32%

insulin-chitosan conjugate: insulin (B29 lysine) bound via -CO-(CH2)2-S-S-(CH2)2-CO- linker to chitosan of MW 3000, 6000 or 9000
decrease in the blood glucose level compared to the initial blood glucose level (Diabetes-induced rats [2]; 50 IU insulin/kg, 2 hours later): > 40%

CC(=O)O[C@H]1C(=O)[C@@]2(C)[C@H]([C@H](OC(=O)c3ccccc3)[C@]3(O)C[C@H](OC(=O)[C@H](O)[C@@H](NC(=O)c4ccccc4)c4ccccc4)C(C)=C1C3(C)C)[C@]1(OC(C)=O)CO[C@@H]1C[C@@H]2O [paclitaxel]
increase of maximum plasma concentration (Cmax) when coadministrated with cyclosporine A ([3]; cyclosporine A 15 mg/kg, FIG. 6a): 9.3 fold
Cmax ([3]; male, ICR, mouse, plasma, without cyclosporine A, conjugate chitosan MW 6000, read-out: maximum plasma concentration (Cmax) of paclitaxel): 90 ± 20 ng/mL
tumor size compared to the control group (B16F10 melanoma cells): no significant difference in the tumor size
bioavailability of paclitaxel ([4]; PTX only): 4-10%
bioavailability of paclitaxel ([4]; combined with a P-gp inhibitor such as cyclosporin A or Valspodar): 50-60%
